According to US12157741B2, “Macrocyclic inhibitors of DYRK1A” (DANA-FARBER CANCER INSTITUTE, INC., priority 2018, dated 2024):
Read-outs that look alike come from different tables or passages of the source.

Assays:
[1] = target: various enzymes (Homo sapiens, UniProt O60331); conditions: PIP5K1C; 1 uM
Experimental: (§1) Ambit profiling from Eurofins (formerly Discoverx) was conducted in accordance with the manufacturer's instructions.

[2] = target: various enzymes (Homo sapiens, UniProt O94804); conditions: LOK; 1 uM
Experimental: as §1

[3] = target: various enzymes (Homo sapiens, UniProt P00533, L861Q)
Experimental: as §1

[4] = target: various enzymes (Homo sapiens, UniProt P08581); conditions: MET; 1 uM
Experimental: as §1

[5] = target: various enzymes (Homo sapiens, UniProt P19525); conditions: PRKR; 1 uM
Experimental: as §1

[6] = target: various enzymes (Homo sapiens, UniProt P24941); conditions: CDK2; 1 uM
Experimental: as §1

[7] = target: T1, various enzymes (Homo sapiens, UniProt P29323); conditions: EPHB2; 1 uM
T1 sequence (P29323 19-1055): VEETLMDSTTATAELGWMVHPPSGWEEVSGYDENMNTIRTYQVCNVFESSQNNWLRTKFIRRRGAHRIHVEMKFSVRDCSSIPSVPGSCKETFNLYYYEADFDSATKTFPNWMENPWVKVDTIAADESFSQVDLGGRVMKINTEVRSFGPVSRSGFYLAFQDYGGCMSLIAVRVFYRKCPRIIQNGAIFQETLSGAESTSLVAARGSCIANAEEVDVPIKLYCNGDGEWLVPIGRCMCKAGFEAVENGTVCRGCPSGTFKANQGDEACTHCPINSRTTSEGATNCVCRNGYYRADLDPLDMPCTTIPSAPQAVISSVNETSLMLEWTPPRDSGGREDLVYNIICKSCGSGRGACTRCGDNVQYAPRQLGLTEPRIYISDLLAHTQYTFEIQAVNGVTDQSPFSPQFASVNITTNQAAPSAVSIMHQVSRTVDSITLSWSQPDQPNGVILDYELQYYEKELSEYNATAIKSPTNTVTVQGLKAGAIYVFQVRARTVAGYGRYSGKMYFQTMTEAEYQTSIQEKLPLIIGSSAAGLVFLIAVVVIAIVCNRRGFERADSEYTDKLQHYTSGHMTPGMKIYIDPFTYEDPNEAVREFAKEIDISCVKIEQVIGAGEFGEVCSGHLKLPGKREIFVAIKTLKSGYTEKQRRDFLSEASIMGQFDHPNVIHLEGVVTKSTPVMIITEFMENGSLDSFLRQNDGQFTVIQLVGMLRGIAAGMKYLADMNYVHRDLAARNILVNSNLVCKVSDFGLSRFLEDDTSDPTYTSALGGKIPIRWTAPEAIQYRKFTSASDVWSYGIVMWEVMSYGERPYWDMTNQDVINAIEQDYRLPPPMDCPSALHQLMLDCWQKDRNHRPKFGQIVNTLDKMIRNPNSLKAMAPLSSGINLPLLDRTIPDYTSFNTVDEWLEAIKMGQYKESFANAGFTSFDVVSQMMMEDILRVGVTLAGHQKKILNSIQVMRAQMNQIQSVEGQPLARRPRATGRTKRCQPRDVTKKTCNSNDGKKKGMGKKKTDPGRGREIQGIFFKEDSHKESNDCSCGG
Experimental: as §1

[8] = target: various enzymes (Homo sapiens, UniProt Q06187); conditions: BTK; 1 uM
Experimental: as §1

[9] = target: T2, various enzymes (Homo sapiens, UniProt Q96L34); conditions: MARK4; 1 uM
T2 sequence (Q96L34 1-752): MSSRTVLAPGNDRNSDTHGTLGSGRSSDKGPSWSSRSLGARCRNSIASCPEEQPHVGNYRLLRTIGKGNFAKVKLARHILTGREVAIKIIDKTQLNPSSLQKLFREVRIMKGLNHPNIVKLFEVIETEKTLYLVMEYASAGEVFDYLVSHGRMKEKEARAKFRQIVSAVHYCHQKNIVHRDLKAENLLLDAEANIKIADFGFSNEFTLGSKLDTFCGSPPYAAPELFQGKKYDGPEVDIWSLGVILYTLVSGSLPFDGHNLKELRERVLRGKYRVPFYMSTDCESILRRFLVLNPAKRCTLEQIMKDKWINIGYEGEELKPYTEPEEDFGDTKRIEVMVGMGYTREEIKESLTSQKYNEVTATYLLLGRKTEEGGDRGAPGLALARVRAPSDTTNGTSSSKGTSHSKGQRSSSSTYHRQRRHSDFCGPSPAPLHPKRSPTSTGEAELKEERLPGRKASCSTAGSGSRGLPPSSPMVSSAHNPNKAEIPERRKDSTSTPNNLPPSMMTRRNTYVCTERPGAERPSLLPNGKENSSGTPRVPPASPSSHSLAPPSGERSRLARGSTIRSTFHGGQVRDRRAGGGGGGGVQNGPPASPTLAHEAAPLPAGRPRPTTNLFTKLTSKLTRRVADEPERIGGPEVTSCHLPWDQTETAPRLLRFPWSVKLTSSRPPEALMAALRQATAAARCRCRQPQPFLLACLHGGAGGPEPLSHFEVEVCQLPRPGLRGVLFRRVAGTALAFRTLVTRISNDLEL
Experimental: as §1

[10] = target: T3, various enzymes (Homo sapiens, UniProt Q99640); conditions: PKMYT1; 1 uM
T3 sequence (Q99640 1-499): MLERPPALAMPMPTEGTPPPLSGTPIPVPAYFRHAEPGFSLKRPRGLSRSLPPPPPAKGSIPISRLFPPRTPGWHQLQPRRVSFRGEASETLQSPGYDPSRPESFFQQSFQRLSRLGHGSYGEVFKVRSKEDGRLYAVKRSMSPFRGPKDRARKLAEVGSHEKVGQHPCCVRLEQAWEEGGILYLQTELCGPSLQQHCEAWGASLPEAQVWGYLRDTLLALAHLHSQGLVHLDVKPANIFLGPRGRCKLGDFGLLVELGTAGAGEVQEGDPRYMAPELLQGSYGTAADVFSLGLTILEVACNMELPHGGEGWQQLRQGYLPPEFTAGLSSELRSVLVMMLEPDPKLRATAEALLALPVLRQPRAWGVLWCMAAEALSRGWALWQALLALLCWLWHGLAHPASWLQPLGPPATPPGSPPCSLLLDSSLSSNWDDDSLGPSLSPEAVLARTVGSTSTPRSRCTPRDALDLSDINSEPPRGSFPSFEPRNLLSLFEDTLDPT
Experimental: as §1

various enzymes (Homo sapiens, UniProt O60331), sequence (O60331 whole entry): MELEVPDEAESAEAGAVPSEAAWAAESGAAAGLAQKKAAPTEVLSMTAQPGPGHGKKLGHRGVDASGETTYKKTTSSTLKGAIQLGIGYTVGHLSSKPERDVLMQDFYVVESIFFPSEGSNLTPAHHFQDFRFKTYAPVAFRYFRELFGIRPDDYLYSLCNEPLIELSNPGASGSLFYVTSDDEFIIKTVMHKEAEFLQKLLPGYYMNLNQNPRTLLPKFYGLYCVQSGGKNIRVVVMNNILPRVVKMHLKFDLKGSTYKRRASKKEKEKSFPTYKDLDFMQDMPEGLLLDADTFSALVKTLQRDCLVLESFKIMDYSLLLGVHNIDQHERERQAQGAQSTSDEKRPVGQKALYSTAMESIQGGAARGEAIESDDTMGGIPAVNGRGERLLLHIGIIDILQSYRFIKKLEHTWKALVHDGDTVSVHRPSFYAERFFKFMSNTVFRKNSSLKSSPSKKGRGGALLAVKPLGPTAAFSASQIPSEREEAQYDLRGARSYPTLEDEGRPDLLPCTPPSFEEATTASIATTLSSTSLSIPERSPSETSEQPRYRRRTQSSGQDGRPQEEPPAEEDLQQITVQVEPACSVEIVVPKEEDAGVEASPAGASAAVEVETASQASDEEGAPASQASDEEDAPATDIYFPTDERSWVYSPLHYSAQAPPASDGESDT
various enzymes (Homo sapiens, UniProt O94804), sequence (O94804 whole entry): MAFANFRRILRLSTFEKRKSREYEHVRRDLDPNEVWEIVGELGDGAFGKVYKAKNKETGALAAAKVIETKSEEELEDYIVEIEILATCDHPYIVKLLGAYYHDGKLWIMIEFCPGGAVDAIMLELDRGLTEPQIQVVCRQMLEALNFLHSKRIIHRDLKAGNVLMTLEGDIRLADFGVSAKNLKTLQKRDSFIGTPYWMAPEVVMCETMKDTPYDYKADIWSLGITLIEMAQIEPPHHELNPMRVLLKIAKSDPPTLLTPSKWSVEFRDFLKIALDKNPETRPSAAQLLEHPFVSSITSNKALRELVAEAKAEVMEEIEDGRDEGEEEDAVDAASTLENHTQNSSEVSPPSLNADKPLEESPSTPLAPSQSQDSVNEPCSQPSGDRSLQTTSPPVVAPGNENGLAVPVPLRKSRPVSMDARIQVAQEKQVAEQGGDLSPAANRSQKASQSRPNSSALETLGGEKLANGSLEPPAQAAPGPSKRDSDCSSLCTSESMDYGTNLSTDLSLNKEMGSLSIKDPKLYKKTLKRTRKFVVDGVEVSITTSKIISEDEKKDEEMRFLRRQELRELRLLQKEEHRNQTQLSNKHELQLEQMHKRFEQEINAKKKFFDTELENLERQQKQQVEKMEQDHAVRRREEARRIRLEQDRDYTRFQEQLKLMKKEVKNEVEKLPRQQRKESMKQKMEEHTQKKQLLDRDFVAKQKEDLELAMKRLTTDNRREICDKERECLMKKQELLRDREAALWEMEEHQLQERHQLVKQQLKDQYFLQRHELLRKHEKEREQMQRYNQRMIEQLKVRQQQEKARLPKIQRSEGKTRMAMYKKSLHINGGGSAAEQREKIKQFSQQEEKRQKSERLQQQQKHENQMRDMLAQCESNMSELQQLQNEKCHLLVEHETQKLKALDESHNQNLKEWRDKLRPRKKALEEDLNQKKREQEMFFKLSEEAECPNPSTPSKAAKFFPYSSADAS
various enzymes (Homo sapiens, UniProt Q06187), sequence (Q06187 whole entry): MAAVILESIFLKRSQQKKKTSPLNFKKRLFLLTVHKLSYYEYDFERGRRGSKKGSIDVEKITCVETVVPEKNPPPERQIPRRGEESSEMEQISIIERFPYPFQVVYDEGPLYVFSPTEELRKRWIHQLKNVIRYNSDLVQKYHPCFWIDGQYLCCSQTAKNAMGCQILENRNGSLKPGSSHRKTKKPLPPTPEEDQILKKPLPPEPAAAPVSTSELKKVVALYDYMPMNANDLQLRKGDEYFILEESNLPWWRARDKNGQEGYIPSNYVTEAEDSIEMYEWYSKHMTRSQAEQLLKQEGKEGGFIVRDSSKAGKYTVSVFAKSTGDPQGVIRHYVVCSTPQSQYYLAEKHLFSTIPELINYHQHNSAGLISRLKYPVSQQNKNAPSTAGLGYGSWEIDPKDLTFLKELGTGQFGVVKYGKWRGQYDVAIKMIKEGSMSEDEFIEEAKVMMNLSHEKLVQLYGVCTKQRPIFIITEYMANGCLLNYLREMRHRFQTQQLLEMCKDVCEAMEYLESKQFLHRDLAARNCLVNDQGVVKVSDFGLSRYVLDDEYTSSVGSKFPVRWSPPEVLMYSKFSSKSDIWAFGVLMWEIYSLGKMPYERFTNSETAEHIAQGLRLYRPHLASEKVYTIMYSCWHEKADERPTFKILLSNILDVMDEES
various enzymes (Homo sapiens, UniProt P19525), sequence (P19525 whole entry): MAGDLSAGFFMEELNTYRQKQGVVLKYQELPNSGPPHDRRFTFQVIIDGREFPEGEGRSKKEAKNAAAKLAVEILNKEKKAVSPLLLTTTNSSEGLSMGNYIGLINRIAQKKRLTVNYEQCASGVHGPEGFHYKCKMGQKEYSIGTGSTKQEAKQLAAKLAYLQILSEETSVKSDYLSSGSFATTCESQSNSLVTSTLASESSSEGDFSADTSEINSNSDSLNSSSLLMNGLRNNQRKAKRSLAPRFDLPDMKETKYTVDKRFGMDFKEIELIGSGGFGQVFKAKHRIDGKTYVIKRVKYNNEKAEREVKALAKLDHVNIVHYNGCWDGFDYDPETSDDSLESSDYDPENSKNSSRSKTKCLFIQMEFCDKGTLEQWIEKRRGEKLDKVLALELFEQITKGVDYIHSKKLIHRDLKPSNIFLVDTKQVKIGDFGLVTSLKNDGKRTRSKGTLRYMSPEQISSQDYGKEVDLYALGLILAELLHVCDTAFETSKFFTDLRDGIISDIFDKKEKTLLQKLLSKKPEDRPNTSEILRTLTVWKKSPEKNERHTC
various enzymes (Homo sapiens, UniProt P08581), sequence (P08581 25-1390): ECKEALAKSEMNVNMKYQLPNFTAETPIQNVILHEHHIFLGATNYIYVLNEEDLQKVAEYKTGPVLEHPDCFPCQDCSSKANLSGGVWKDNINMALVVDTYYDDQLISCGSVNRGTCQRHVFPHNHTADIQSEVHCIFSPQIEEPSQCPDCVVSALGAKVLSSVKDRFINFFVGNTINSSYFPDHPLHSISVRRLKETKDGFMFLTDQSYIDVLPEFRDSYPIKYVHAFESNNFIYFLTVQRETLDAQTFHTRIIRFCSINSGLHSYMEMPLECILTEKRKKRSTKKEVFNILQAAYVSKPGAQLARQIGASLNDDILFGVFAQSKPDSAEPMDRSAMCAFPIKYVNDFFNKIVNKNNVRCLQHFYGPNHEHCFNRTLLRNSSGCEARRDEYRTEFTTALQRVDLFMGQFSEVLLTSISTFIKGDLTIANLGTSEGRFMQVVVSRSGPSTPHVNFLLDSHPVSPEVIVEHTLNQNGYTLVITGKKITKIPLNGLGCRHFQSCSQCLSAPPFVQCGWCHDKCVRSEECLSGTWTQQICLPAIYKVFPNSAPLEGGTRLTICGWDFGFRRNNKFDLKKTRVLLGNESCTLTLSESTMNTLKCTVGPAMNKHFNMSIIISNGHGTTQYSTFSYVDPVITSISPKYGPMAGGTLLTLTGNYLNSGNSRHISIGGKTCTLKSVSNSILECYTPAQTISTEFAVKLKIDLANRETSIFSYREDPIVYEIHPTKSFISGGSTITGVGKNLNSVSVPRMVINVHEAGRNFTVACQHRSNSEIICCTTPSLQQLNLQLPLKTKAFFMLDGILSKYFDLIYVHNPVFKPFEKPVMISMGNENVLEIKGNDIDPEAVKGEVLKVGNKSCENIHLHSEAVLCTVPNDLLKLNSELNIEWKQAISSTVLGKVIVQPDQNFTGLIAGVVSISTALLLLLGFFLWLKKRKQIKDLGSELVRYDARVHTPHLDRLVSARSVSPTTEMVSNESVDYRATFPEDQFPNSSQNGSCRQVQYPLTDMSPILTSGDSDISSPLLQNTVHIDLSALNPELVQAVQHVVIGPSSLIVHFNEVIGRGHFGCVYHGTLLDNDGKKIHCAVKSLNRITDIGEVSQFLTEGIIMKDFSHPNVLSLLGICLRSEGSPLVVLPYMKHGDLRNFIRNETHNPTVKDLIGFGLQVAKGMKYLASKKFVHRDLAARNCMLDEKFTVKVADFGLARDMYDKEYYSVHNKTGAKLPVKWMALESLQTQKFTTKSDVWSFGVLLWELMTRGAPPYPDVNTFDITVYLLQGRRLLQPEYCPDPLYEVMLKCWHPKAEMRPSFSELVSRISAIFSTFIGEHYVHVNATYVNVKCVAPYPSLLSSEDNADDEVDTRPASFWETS

SMILES | Ambit profiling [1] | Ambit profiling [2] | Ambit profiling ([3]; EGFR(L861Q), 1 uM) | Ambit profiling [4] | Ambit profiling [5] | Ambit profiling [6] | Ambit profiling [7] | Ambit profiling [8] | Ambit profiling [9] | Ambit profiling [10] | Ambit profiling [3]
CN1Cc2nn(C)cc2-c2cnc3[nH]cc(c3c2)-c2cnn(c2)CCCC1=O [Compound 41, (Z)-31,5-dimethyl-11H,21H,31H-5-aza-2(3,5)-pyrrolo[2,3-b]pyridina-1(4,1),3(4,3)-dipyrazolacyclononaphan-6-one] | 20 | 74 | 100 | 30 | 9.2 | 55 | 80 | 61 | 27 | 64 | 
CN1Cc2nn(C)c(C#N)c2-c2cnc3[nH]cc(c3c2)-c2cn(nc2C(F)(F)F)CCCC1=O [Compound 48, (Z)-31,5-dimethyl-6-oxo-13-(trifluoromethyl)-11H,21H,31H-5-aza-2(3,5)-pyrrolo[2,3-b]pyridina-1(4,1),3(4,3)-dipyrazolacyclononaphane-35-carbonitrile] | 38 | 52 |  | 48 | 100 | 91 | 99 | 97 | 92 | 77 | 59
